For 24 compounds, IC50 results are on record in patent publication US11345681B1, “Inhibitors of fibroblast growth factor receptor kinases” (Kinnate Biopharma Inc., priority 2020, dated 2022).

This test concerns the target Wild type FGFR2 (Homo sapiens (Human), UniProt P21802). Nature of the test: FGFR2 kinase assay (fluorescence-based microfluidic mobility shift assay). Type of test: biochemical. The following applies: wild type FGFR2 0.06 nM, 100 μM ATP, 80 minutes at room temperature; class symbols.

Structures are written as SMILES. Where only a bound is given, the exact number is not on record here.

Sequence of Wild type FGFR2 (P21802 22-821): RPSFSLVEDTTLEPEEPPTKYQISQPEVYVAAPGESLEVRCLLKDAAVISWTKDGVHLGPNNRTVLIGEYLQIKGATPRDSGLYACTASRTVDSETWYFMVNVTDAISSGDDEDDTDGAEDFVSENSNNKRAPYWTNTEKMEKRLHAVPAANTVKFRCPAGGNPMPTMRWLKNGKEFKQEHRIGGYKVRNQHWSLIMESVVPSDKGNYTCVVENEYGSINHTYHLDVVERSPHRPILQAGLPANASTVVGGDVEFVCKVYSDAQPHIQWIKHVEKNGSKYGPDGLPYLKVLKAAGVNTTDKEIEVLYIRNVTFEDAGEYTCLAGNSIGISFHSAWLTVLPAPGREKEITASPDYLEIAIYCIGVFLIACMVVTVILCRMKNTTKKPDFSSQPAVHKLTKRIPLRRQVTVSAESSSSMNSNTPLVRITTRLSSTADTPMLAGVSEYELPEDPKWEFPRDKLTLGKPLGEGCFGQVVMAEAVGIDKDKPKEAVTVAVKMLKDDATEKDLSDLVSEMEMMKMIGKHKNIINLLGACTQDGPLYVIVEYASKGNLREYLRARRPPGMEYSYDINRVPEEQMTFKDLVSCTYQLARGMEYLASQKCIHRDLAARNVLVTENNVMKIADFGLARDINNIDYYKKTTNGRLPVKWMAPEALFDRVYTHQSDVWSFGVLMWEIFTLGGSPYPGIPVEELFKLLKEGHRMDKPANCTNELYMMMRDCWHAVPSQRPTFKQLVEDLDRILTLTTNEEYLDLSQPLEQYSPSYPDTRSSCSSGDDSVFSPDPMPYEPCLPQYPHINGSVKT

What is called IC50 is the concentration at which inhibition is half-maximal. As to `C=CC(=O)N1C[C@@H](n2nc(C#Cc3c(F)cc4c(ncn4C4CC4)c3F)c(C(N)=O)c2N)C[C@@H]1COC(F)F` [Example 215, 5-Amino-3-[2-(1-cyclopropyl-4,6-difluoro-1,3-benzodiazol-5-yl)ethynyl]-1-[(3S,5R)-5-[(difluoromethoxy)methyl]-1-(prop-2-enoyl)pyrrolidin-3-yl]pyrazole-4-carboxamide], the IC50 is no more than 100 nM. Take `C=CC(=O)N1C[C@@H](n2nc(C#Cc3cc4nc(C)n(C5CC5)c4cc3Cl)c(C(N)=O)c2NC)C[C@@H]1[C@@H](C)O` [Example 220, 1-((3S,5R)-1-Acryloyl-5-((R)-1-hydroxyethyl)pyrrolidin-3-yl)-3-((6-chloro-1-cyclopropyl-2-methyl-1H-benzo[d]imidazol-5-yl)ethynyl)-5-(methylamino)-1H-pyrazole-4-carboxamide]: the IC50 is no more than 100 nM. Take `C=CC(=O)N1C[C@@H](n2nc(C#Cc3cc4nc(C)n(C5CC5)c4cc3Cl)c(C(N)=O)c2NC)C[C@@H]1[C@H](C)O` [Example 221, 1-((3S,5R)-1-Acryloyl-5-((S)-1-hydroxyethyl)pyrrolidin-3-yl)-3-((6-chloro-1-cyclopropyl-2-methyl-1H-benzo[d]imidazol-5-yl)ethynyl)-5-(methylamino)-1H-pyrazole-4-carboxamide]: the IC50 is no more than 100 nM. For the compound `C=CC(=O)N1C[C@@H](n2nc(C#Cc3cc4ncn(C5CC5)c4cc3Cl)c(C(N)=O)c2NC)C[C@@H]1[C@@H](C)O` [Example 222, 3-[2-(6-Chloro-1-cyclopropyl-1,3-benzodiazol-5-yl)ethynyl]-1-[(3S,5R)-5-[(1R)-1-hydroxyethyl]-1-(prop-2-enoyl)pyrrolidin-3-yl]-5-(methylamino)pyrazole-4-carboxamide], the IC50 is no more than 100 nM. As for `C=CC(=O)N1C[C@@H](n2nc(C#Cc3cc4ncn(C5CC5)c4cc3Cl)c(C(N)=O)c2NC)C[C@@H]1[C@H](C)O` [Example 223, 3-[2-(6-chloro-1-cyclopropyl-1,3-benzodiazol-5-yl)ethynyl]-1-[(3S,5R)-5-[(1S)-1-hydroxyethyl]-1-(prop-2-enoyl)pyrrolidin-3-yl]-5-(methylamino)pyrazole-4-carboxamide], the figure is no more than 100 nM.

Regarding `C=CC(=O)N1C[C@@H](n2nc(C#Cc3cc4nc(C)n(C5CC5)c4cc3F)c(C(N)=O)c2NC)C[C@@H]1[C@@H](C)O` [Example 224, 3-[2-(1-Cyclopropyl-6-fluoro-2-methyl-1,3-benzodiazol-5-yl)ethynyl]-1-[(3S,5R)-5-[(1R)-1-hydroxyethyl]-1-(prop-2-enoyl)pyrrolidin-3-yl]-5-(methylamino)pyrazole-4-carboxamide], the IC50 was no more than 100 nM. The same measure for `C=CC(=O)N1C[C@@H](n2nc(C#Cc3cc4nc(C)n(C5CC5)c4cc3F)c(C(N)=O)c2NC)C[C@@H]1[C@H](C)O` [Example 225, 3-[2-(1-Cyclopropyl-6-fluoro-2-methyl-1,3-benzodiazol-5-yl)ethynyl]-1-[(3S,5R)-5-[(1S)-1-hydroxyethyl]-1-(prop-2-enoyl)pyrrolidin-3-yl]-5-(methylamino)pyrazole-4-carboxamide]: no more than 100 nM; for `CNc1c(C(N)=O)c(C#Cc2cc3nc(C)n(C4CC4)c3cc2F)nn1[C@H]1C[C@H](COC)N(C(=O)C#CC(C)(C)O)C1` [Example 227, 3-[2-(1-Cyclopropyl-6-fluoro-2-methyl-1,3-benzodiazol-5-yl)ethynyl]-1-[(3S,5R)-1-(4-hydroxy-4-methylpent-2-ynoyl)-5-(methoxymethyl)pyrrolidin-3-yl]-5 (methylamino)pyrazole-4-carboxamide]: no more than 100 nM. For `CNc1c(C(N)=O)c(C#Cc2cc3nc(C)n(C4CC4)c3cc2Cl)nn1[C@H]1C[C@H](COC)N(C(=O)C#CC(C)(C)O)C1` [Example 228, 3-[2-(6-Chloro-1-cyclopropyl-2-methyl-1,3-benzodiazol-5-yl)ethynyl]-1-[(3S,5R)-1-(4-hydroxy-4-methylpent-2-ynoyl)-5-(methoxymethyl)pyrrolidin-3-yl]-5-(methylamino)pyrazole-4-carboxamide], the IC50 is no more than 100 nM. Consider `C=CC(=O)N1C[C@@H](n2nc(C#Cc3cc4ncn(C5CCC5)c4cc3Cl)c(C(N)=O)c2NC)C[C@@H]1COC` [Example 232, 3-[2-(6-chloro-1-cyclobutyl-1,3-benzodiazol-5-yl)ethynyl]-1-[(3S,5R)-5-(methoxymethyl)-1-(prop-2-enoyl)pyrrolidin-3-yl]-5-(methylamino)pyrazole-4-carboxamide], for which the IC50 is no more than 100 nM. With `C=CC(=O)N1C[C@@H](n2nc(C#Cc3cc4nc(C)n(C5CCC5)c4cc3Cl)c(C(N)=O)c2NC)C[C@@H]1COC` [Example 233, 1-((3S,5R)-1-Acryloyl-5-(methoxymethyl)pyrrolidin-3-yl)-3-((6-chloro-1-cyclobutyl-2-methyl-1H-benzo[d]imidazol-5-yl)ethynyl)-5-(methylamino)-1H-pyrazole-4-carboxamide], the IC50 was no more than 100 nM. Consider `C=CC(=O)N1C[C@@H](n2nc(C#Cc3cc4ncn(C5COC5)c4cc3F)c(C(N)=O)c2NC)C[C@@H]1COC` [Example 234, 3-{2-[6-Fluoro-1-(oxetan-3-yl)-1,3-benzodiazol-5-yl]ethynyl}-1-[(3S,5R)-5-(methoxymethyl)-1-(prop-2-enoyl)pyrrolidin-3-yl]-5-(methylamino)pyrazole-4-carboxamide], for which the IC50 was no more than 100 nM. For `C=CC(=O)N1C[C@@H](n2nc(C#Cc3cc4ncc(C)cc4cc3F)c(C(N)=O)c2NC)C[C@@H]1COC` [Example 236, 3-[2-(6-fluoro-3-methylquinolin-7-yl)ethynyl]-1-[(3S,5R)-5-(methoxymethyl)-1-(prop-2-enoyl)pyrrolidin-3-yl]-5-(methylamino)pyrazole-4-carboxamide], the IC50 was no more than 100 nM. With `C=CC(=O)N1C[C@@H](n2nc(C#Cc3cc4ncn(C5CC5)c4cc3F)c(C(N)=O)c2N)C[C@@H]1[C@@H](C)O` [Example 240, 5-Amino-3-[2-(1-cyclopropyl-6-fluoro-1,3-benzodiazol-5-yl)ethynyl]-1-[(3S,5R)-5-[(1R)-1-hydroxyethyl]-1-(prop-2-enoyl)pyrrolidin-3-yl]pyrazole-4-carboxamide], the IC50 is no more than 100 nM. For the compound `C=CC(=O)N1C[C@@H](n2nc(C#Cc3cc4ncn(C5CC5)c4cc3F)c(C(N)=O)c2N)C[C@@H]1[C@H](C)O` [Example 241, 5-Amino-3-[2-(1-cyclopropyl-6-fluoro-1,3-benzodiazol-5-yl)ethynyl]-1-[(3S,5R)-5-[(1S)-1-hydroxyethyl]-1-(prop-2-enoyl)pyrrolidin-3-yl]pyrazole-4-carboxamide], the IC50 is no more than 100 nM. For `C=CC(=O)N1C[C@@H](n2nc(C#Cc3cc4nc(C)n(C5CC5)c4cc3Cl)c(C(N)=O)c2N)C[C@@H]1[C@@H](C)O` [Example 244, 1-((3S,5R)-1-Acryloyl-5-((R)-1-hydroxyethyl)pyrrolidin-3-yl)-5-amino-3-((6-chloro-1-cyclopropyl-2-methyl-1H-benzo[d]imidazol-5-yl)ethynyl)-1H-pyrazole-4-carboxamide], the IC50 is no more than 100 nM. For `C=CC(=O)N1C[C@@H](n2nc(C#Cc3cc4nc(C)n(C5CC5)c4cc3Cl)c(C(N)=O)c2N)C[C@@H]1[C@H](C)O` [Example 245, 1-((3S,5R)-1-Acryloyl-5-((S)-1-hydroxyethyl)pyrrolidin-3-yl)-5-amino-3-((6-chloro-1-cyclopropyl-2-methyl-1H-benzo[d]imidazol-5-yl)ethynyl)-1H-pyrazole-4-carboxamide], the IC50 was no more than 100 nM. On to `C=CC(=O)N1C[C@@H](n2nc(C#Cc3cc4nc(C)n(C5CC5)c4cc3F)c(C(N)=O)c2N)C[C@@H]1[C@@H](C)O` [Example 246], for which the IC50 was no more than 100 nM. In the case of `C=CC(=O)N1C[C@@H](n2nc(C#Cc3cc4nc(C)n(C5CC5)c4cc3F)c(C(N)=O)c2N)C[C@@H]1[C@H](C)O` [Example 247, 5-Amino-3-[2-(1-cyclopropyl-6-fluoro-2-methyl-1,3-benzodiazol-5-yl)ethynyl]-1-[(3S,5R)-5-[(1S)-1-hydroxyethyl]-1-(prop-2-enoyl)pyrrolidin-3-yl]pyrazole-4-carboxamide], the IC50 is no more than 100 nM. Turning to `C=CC(=O)N1C[C@@H](n2nc(C#Cc3cc4ncn(C5COC5)c4cc3Cl)c(C(N)=O)c2NC)C[C@@H]1COC` [Example 248], the IC50 is no more than 100 nM. As for `C=CC(=O)N1C[C@@H](n2nc(C#Cc3cc4nc(C)n(C5COC5)c4cc3Cl)c(C(N)=O)c2NC)C[C@@H]1COC` [Example 249, 3-{2-[6-chloro-2-methyl-1-(oxetan-3-yl)-1,3-benzodiazol-5-yl]ethynyl}-1-[(3S,5R)-5-(methoxymethyl)-1-(prop-2-enoyl)pyrrolidin-3-yl]-5-(methylamino)pyrazole-4-carboxamide], the IC50 was no more than 100 nM. `C=CC(=O)N1C[C@@H](n2nc(C#Cc3c(F)cc4c(ncn4C4CC4)c3F)c(C(N)=O)c2NCCO)C[C@@H]1COC` [Example 251, 3-[2-(1-Cyclopropyl-4,6-difluoro-1,3-benzodiazol-5-yl)ethynyl]-5-[(2-hydroxyethyl)amino]-1-[(3S,5R)-5-(methoxymethyl)-1-(prop-2-enoyl)pyrrolidin-3-yl]pyrazole-4-carboxamide]: the IC50 was no more than 100 nM. `C=CC(=O)N1C[C@@H](n2nc(C#Cc3cc4nc(C)n(C5CC5)c4cc3F)c(C(N)=O)c2NCCO)C[C@@H]1COC` [Example 252, 3-[2-(1-Cyclopropyl-6-fluoro-2-methyl-1,3-benzodiazol-5-yl)ethynyl]-5-[(2-hydroxyethyl)amino]-1-[(3S,5R)-5-(methoxymethyl)-1-(prop-2-enoyl)pyrrolidin-3-yl]pyrazole-4-carboxamide]: the IC50 was no more than 100 nM.

Take `C=CC(=O)N1C[C@@H](n2nc(C#Cc3cc4nc(C)n(C5CC5)c4cc3Cl)c(C(N)=O)c2NCCO)C[C@@H]1COC` [Example 253, 1-((3S,5R)-1-Acryloyl-5-(methoxymethyl)pyrrolidin-3-yl)-3-((6-chloro-1-cyclopropyl-2-methyl-1H-benzo[d]imidazol-5-yl)ethynyl)-5-((2-hydroxyethyl)amino)-1H-pyrazole-4-carboxamide]: the IC50 is no more than 100 nM.
